Converted amounts (≈) assume the structure as drawn.
Tests used:
physchem = conditions: PBS buffer with 1% dimethyl sulfoxide, pH 7.4
in vitro = conditions: Sprague-Dawley, rat, liver microsomes

SMILES: CCCCC(=O)N(Cc1ccc(-c2ccccc2C(=O)O)cc1)c1ccccc1
- solubility (physchem): 250 µM (≈ 96.9 µg/mL)
- remaining at 1 h, 1000 µM (in vitro): 66%

Source: ChEMBL document CHEMBL4725415, “First Structure-Activity Relationship Study of Potent BLT2 Agonists as Potential Wound-Healing Promoters” (J Med Chem, 2020)
